Assay results as given in paper PMC9459403, “New inhibitors of cathepsin V impair tumor cell proliferation and elastin degradation and increase immune cell cytotoxicity” (Computational and Structural Biotechnology Journal, 2022).
Entries after “also recorded” stand apart in the source; their conditions may differ.

Key:
MCF7 cells = assay: Proliferation assay (CFSE-labeled cells, flow cytometry); format: cell-based, human; conditions: 72 h
Protocol: To assess the effect of cathepsin V inhibitors on cell proliferation, MCF7 cells were fluorescently labeled with carboxyfluorescein succinimidyl ester (CFSE; ImmunoChemistry Technologies, Bloomington, MN, USA) in PBS for 15 min at room temperature according to the manufacturer’s instructions. Cells were washed with PBS, resuspended in complete medium, seeded (at 4 × 10^4 cells/well) into 24-well plates, and allowed to adhere overnight. Cells were then treated with the following inhibitors: compound 7 (10 μM), E-64d (10 μM), CLIK-148 (1 μM), LHVS (10 nM), pepstatin (20 μM), their combinations, or DMSO (0.1 %) in 500 μL of medium for 72 h at 37 °C. To prepare cells for flow cytometry, cells were detached and transferred to round-bottomed polystyrene tubes and washed with PBS. Before measurement, 7-aminoactinomycin D (7-AAD; ImmunoChemistry Technologies, Bloomington, MN, USA) was added according to the manufacturer’s instructions to exclude dead cells. Therefore, the green fluorescence arising from CFSE was monitored only for viable cells. The measurement was performed using a FACSCalibur instrument (BD Biosciences, San Jose, CA, USA).

[1] = test system: U-937-derived macrophages; assay: Intracellular elastin-FITC degradation; format: cell-based, human
Protocol: To evaluate the effect of the inhibitors on the elastolytic activity of cathepsin V, we assessed the intracellular degradation of elastin-FITC, a soluble bovine neck ligament elastin that is heavily labeled with FITC such that the fluorescence of the conjugate is quenched. Upon proteolysis, fluorescence is recovered and can be detected. U-937 cells, differentiated into macrophage-like cells, were seeded (at 1 × 10^5 cells/well) into 24-well plates with 500 μL of medium supplemented with 50 nM PMA. Inhibitors or DMSO (0.1 %) and elastin-FITC (10 μg/mL; AnaSpec, Fermont, CA, USA) were added to the medium and incubated for 24 h at 37 °C. Cells were detached and washed with PBS, and propidium iodide (BD Bioscience) was added to exclude dead cells. Therefore, green fluorescence arising from elastin-FITC degradation was monitored only for viable cells. The measurement was performed using a FACSCalibur instrument (BD Biosciences).

Cathepsin V = target: T1, Cathepsin V (Homo sapiens, UniProt O60911); assay: Determination of binding reversibility (dilution method); format: biochemical; conditions: inhibitor 100 μM, cathepsin V 500 ng/ml
T1 construct: made in house; host or cells: Pichia pastoris
T1 sequence (O60911 114-334): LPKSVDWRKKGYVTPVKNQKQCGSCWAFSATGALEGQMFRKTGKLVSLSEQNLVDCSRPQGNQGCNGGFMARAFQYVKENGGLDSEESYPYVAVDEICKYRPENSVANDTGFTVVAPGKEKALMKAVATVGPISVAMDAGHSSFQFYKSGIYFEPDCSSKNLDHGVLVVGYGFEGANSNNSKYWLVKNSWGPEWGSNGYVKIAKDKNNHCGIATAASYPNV
Protocol: Binding reversibility was determined according to the dilution method, which measures the recovery of enzymatic activity after rapid dilution of the enzyme-inhibitor complex. Cathepsin V (500 ng/ml) was incubated in the assay buffer with the inhibitor (100 μM). Half of the reaction mixture was immediately diluted 100-fold with the assay buffer and added to the wells of a black microplate containing 5 μL of substrate (at a final concentration of 2 μM), and the activity was measured. The other half of the reaction mixture was incubated for 2 h before it was diluted 100-fold, and then the activity was measured. The assay was performed in triplicates and repeated at least two times.

NK-92 cells = assay: Cell viability assay (MTS); format: cell-based; conditions: up to 10 μM, 24 h
Protocol: (§1) The effect of compound 7 on the viability of NK-92, TALL-104, and K-562 cells was evaluated using the MTS [3-(4,5-dimethylthiazol-2-yl)-5-(3-carboxymetoxyphenyl)-2-(4-sulfophenyl)–2H-tetrazolium] colorimetric assay (CellTiter 96 Aqueous One Solution Cell Proliferation Assay, Promega, Madison, WI, USA). NK-92, TALL-104, and K-562 cells were seeded at 2.5 × 10^4, 1 × 10^5, and 1 × 10^4 cells/well, respectively, into a 96-well microplate and treated with inhibitors (2.5, 5, or 10 µM) or DMSO (0.1 %) for 24 h. After incubation, 10 µL of the reagent MTS was added to the wells, and the absorbance of formazan was measured at 492 nm on a Tecan Infinite M1000 (Mannedorf, Switzerland). Cell viability (%) was expressed as the ratio between absorbance in the presence of the compounds and in the presence of DMSO. All assays were performed in quadruplicate and repeated at least twice.

TALL-104 cells = assay: Cell viability assay (MTS); format: cell-based; conditions: up to 10 μM, 24 h
Protocol: as §1

Kinetic solubility = format: physicochemical; conditions: PBS pH 7.4 with 5 % DMSO, pH 7.4, aqueous with cosolvent or surfactant or cyclodextrin, kinetic from dmso stock; PBS with 5 % DMSO
Protocol: The solubility of compound 7 was determined in buffer (PBS pH 7.4) containing 5 % DMSO. Serial dilutions of 7 were prepared in DMSO at concentrations of 4 mM, 2 mM, 1.5 mM, 1 mM, and 0.2 mM. The assay was performed in 96-well microplates in duplicate. Briefly, to 190 µL of buffer, 10 µL of the compound stock solution in DMSO was added. The plate was shaken and the absorbance at 620 nm was measured using a plate reader (Synergy H4, BioTek Instruments, Inc., Santa Clara, CA, USA) in area scan mode (5 × 5 measurements per well). The mean absorbance was then compared relative to the blank to determine the solubility of the compound at each concentration tested.

[2] = test system: TALL-104 effector cells on target K-562 cells; assay: Calcein AM release assay (cytotoxicity); format: cell-based, human; conditions: effector cells treated 10 µM, 6 h
Protocol: (§2) Effector cells (NK-92 or TALL-104; 1 × 10^6/ml) were treated with E-64d (10 µM) or compound 7 (10 µM) for 6 h. NK-92 cells were pre-treated with 1000 IU IL2/mL overnight prior to the addition of inhibitors. Effector cells were added to a 96-well U-bottom plate to achieve a selected effector-to-target ratio (E:T). Target K-562 cells were labelled with 15 µM Calcein-AM (Sigma) in serum-free RPMI 1640 medium for 30 min at 37 °C. Cells were then washed twice and resuspended in complete RPMI 1640 medium. Target cells (n = 5000) were added to the effectors. The plate was centrifuged at 200 × g for 1 min and incubated at 37 °C and 5 % CO2 for 4 h. After incubation, the plate was centrifuged at 700 × g for 5 min. The supernatant (50 µL) was transferred to a new microtiter plate to measure the fluorescence of the released Calcein-AM with a Tecan M1000 microtiter plate reader using 496 nm excitation and 516 nm emission filters. The percentage of cytotoxicity was calculated as follows: 100(test release-spontaneous release)/(total release-spontaneous release). Spontaneous release was measured in wells containing only target cells. For total release, 2 % Triton X-100 was added to the wells to achieve lysis of target cells. Lytic units (LU) were calculated using the inverse of the number of effector cells needed to lyse 30 % of the target cells multiplied by 100.

[3] = test system: NK-92 effector cells on target K-562 cells; assay: Calcein AM release assay (cytotoxicity); format: cell-based, human; conditions: effector cells treated 10 µM, 6 h
Protocol: as §2

O=C(NCc1cccc2ccccc12)NCC1CCN(C(=O)Oc2ccccc2)CC1 [Compound 7, Phenyl 4-((3-(naphthalen-1-ylmethyl)ureido)methyl)piperidine-1-carboxylate]
increase of fluorescence intensity of CFSE-labeled cells compared to control cells (MCF7 cells; 10 μM, higher CFSE = less proliferation): 50.6 ± 5.1% | increase of relative CFSE fluorescence intensity, co-treatment with CLIK-148, LHVS, and compound 7 together (MCF7 cells; compound 7 10 μM + CLIK-148 1 μM + LHVS 10 nM): 46.1 ± 5.2% | decrease of elastin-FITC degradation ([1]; 10 μM, 24 h, vs DMSO): 9.5 ± 1.6% | elastin-FITC degradation, compound 7 added to CLIK-148 ([1]; compound 7 10 μM + CLIK-148, vs control cells and CLIK-148 alone): significantly decreased | binding reversibility: cathepsin V activity after 2 h incubation and 100-fold rapid dilution (Cathepsin V): reversible; also recorded: restored | viability of NK-92 cells (NK-92 cells): not significantly reduced | viability of TALL-104 cells (TALL-104 cells): not significantly reduced | solubility kinetic (Kinetic solubility): 75 to 100 µM | cytotoxicity of TALL-104 cells (target cell killing) [2]: significantly increased | cytotoxicity of NK-92 cells (target cell killing) [3]: significantly increased
